Our source for the IC50 values is patent US20260200897A1, “4-((5-(3-(4-(PYRIDIN-2-YL)CYCLOPENTYL)-1H-PYRAZOL-3-YL)AMINO)-BENZENESULFONAMIDE DERIVATIVES AND SIMILAR COMPOUNDS AS CDK INHIBITORS FOR THE TREATMENT OF CANCER” (BeOne Medicines I GmbH, priority 2023, published 2026).

One assay addresses CDK2/Cyclin E1 (Homo sapiens, UniProt P24941). Put plainly: CDK2/Cyclin E1 TR-FRET biochemical assay, 1 mM ATP. Particulars: 0.15 μM Rb (Ser780)-biotin substrate, 90 min reaction, Table 2. The procedure:
(§1) Compounds disclosed herein were tested for inhibition of CDK2/Cyclin E1 or CDK1/Cyclin B kinase in an assay based on the time-resolved fluorescence-resonance energy transfer (TR-FRET) methodology. The assay was carried out in 384-well low volume black plates in a reaction mixture containing CDK2/Cyclin E1 or CDK1/Cyclin B1, 1 mM ATP for CDK2/Cyclin E1 and CDK1/Cyclin B1, 0.15 μM Rb (Ser780)-biotin substrate and 0-10 μM compound in buffer containing 50 mM HEPES pH7.0, 0.02% NaN3, 0.01% BSA, 0.1 mM Orthovanadate, 50 mM MgCl2, 1 mM DTT and 0.005% Tween-20. The kinase was incubated with compound for 60 minutes at room temperature and the reaction was initiated by the addition of ATP and Rb (Ser780)-biotin substrate. After reaction at room temperature for 90 minutes, an equal volume of stop/detection solution was added according to the manufacture's instruction (Cisbio Bioassays). The stop/detection solution contained Streptavidin-XL665 and Anti-pRb (Ser780) mAb-Eu Cryptate in Detection buffer (Cisbio Bioassays). Plates were incubated at room temperature for 60 minutes, and the TR-FRET signals (ex337 nm, em665 nm/620 nm) were recorded on a PHERAstar FSX plate reader (BMG Labtech). The inhibition percentage of CDK2/Cyclin E1 or CDK1/Cyclin B1 kinase activity in presence of increasing concentrations of compounds was calculated based on the ratio of fluorescence at 665 nm to that at 620 nm. The IC50 for each compound was derived from fitting the data to the four-parameter logistic equation by Dotmatics.
For orientation: Time-resolved FRET reads energy transfer from a long-lived donor to a nearby acceptor.

Another assay has as its target CDK1/Cyclin B1 (Homo sapiens, UniProt P06493). Put plainly: CDK1/Cyclin B1 TR-FRET biochemical assay, 1 mM ATP. Particulars: 0.15 μM Rb (Ser780)-biotin substrate, 90 min reaction, Table 2. The procedure:
as §1

CDK1/Cyclin B1, sequence (P06493 whole entry): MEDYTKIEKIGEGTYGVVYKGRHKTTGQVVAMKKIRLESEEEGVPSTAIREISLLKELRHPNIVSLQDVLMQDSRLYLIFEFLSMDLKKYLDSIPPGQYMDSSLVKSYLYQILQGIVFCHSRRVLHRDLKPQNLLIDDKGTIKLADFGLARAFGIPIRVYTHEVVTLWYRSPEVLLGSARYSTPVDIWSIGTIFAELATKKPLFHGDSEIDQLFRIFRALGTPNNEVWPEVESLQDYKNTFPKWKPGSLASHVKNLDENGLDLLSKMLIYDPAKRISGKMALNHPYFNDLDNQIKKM
CDK1/Cyclin B1, sequence (P14635 whole entry partner): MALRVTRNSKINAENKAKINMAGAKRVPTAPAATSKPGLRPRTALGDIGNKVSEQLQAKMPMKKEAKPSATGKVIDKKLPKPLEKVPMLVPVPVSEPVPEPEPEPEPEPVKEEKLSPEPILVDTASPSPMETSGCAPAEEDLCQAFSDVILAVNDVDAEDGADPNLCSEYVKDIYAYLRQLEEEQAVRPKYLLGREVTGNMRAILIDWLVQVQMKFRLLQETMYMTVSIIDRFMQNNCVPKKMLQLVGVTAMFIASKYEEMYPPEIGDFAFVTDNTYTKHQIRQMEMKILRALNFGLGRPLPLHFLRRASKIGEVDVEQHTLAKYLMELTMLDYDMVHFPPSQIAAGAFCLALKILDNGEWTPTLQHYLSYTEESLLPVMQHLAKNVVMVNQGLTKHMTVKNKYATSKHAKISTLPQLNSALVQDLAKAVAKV

In general, IC50 refers to the point on the concentration scale where inhibition reaches its midpoint. A higher IC50 goes with lower potency. `CC(C)(C)c1cccc(C2=CC(c3cc(Nc4ccc5c(c4F)CS(=O)(=O)N5)n[nH]3)CC2)n1` (stereo not drawn) [Example 157, 5-((5-(3-(6-(tert-butyl)pyridin-2-yl)cyclopent-2-en-1-yl)-1H-pyrazol-3-yl)amino)-4-fluoro-1,3-dihydrobenzo[c]isothiazole 2,2-dioxide]: the IC50 at CDK2/Cyclin E1 and against CDK1/Cyclin B1 was greater than 10000 nM in each case.
For the compound `Cc1cc(C(C)(C)C)cc(C2CCC(c3cc(Nc4ccc(S(N)(=O)=O)cc4F)n[nH]3)C2)n1` (stereo not drawn) [Example 2, 4-((5-(3-(4-(tert-butyl)-6-methylpyridin-2-yl)cyclopentyl)-1H-pyrazol-3-yl)amino)-3-fluorobenzenesulfonamide], the IC50 against CDK2/Cyclin E1 was 5680 nM; on CDK1/Cyclin B1 it was greater than 10000 nM.
The matching figures for `COc1cccc(C2CCC(c3cc(Nc4ccc5c(c4F)CNS5(=O)=O)n[nH]3)C2)n1` (stereo not drawn) [Example 121, 4-fluoro-5-((5-(3-(6-methoxypyridin-2-yl)cyclopentyl)-1H-pyrazol-3-yl)amino)-2,3-dihydrobenzo[d]isothiazole 1,1-dioxide]: 3870 nM and greater than 10000 nM.
Take `CC(C)(C)c1cc(C2CCC(c3cc(Nc4ccc5c(c4F)CNS5(=O)=O)n[nH]3)C2)ncn1` (stereo not drawn) [Example 130, 5-((5-(3-(6-(tert-butyl)pyrimidin-4-yl)cyclopentyl)-1H-pyrazol-3-yl)amino)-4-fluoro-2,3-dihydrobenzo[d]isothiazole 1,1-dioxide]: the IC50 against CDK2/Cyclin E1 is 2120 nM; at CDK1/Cyclin B1, greater than 10000 nM.
For `CC(C)(C)c1cnnc(C2CCC(c3cc(Nc4ccc(S(N)(=O)=O)cc4F)n[nH]3)C2)c1` (stereo not drawn) [Example 3, 4-((5-(3-(5-(tert-butyl)pyridazin-3-yl)cyclopentyl)-1H-pyrazol-3-yl)amino)-3-fluorobenzenesulfonamide], the figures for the IC50 against CDK2/Cyclin E1 and against CDK1/Cyclin B1 were 147 nM and greater than 10000 nM, respectively.
On the same counts, the results for `CC(C)(C)c1cncc(C2CCC(c3cc(Nc4ccc5c(c4F)CS(=O)(=O)N5)n[nH]3)C2)c1` (stereo not drawn) [Example 162, 5-((5-(3-(5-(tert-butyl)pyridin-3-yl)cyclopentyl)-1H-pyrazol-3-yl)amino)-4-fluoro-1,3-dihydrobenzo[c]isothiazole 2,2-dioxide] are 308 nM and greater than 10000 nM.
The matching figures for `CC(C)(C)n1ccc(C2CCC(c3cc(Nc4ccc5c(c4F)CNS5(=O)=O)n[nH]3)C2)n1` (stereo not drawn) [Example 98, 5-((5-(3-(1-(tert-butyl)-1H-pyrazol-3-yl)cyclopentyl)-1H-pyrazol-3-yl)amino)-4-fluoro-2,3-dihydrobenzo[d]isothiazole 1,1-dioxide]: 453 nM and greater than 10000 nM.
Regarding `CC(C)c1cnc(C2CCC(c3cc(Nc4ccc5c(c4F)CN=S5(C)=O)n[nH]3)C2)o1` (stereo not drawn) [Example 170], the IC50 against CDK2/Cyclin E1 came out at 5.4 nM; at CDK1/Cyclin B1 it was 1440 nM.
On the same counts, the results for `CC(C)(C)c1coc(C2CCC(c3cc(Nc4ccc5c(c4)CS(=O)(=O)N5)n[nH]3)C2)n1` (stereo not drawn) [Example 136, 5-((5-(3-(4-(tert-butyl)oxazol-2-yl)cyclopentyl)-1H-pyrazol-3-yl)amino)-1,3-dihydrobenzo[c]isothiazole 2,2-dioxide] are 60 nM and 4950 nM.
The matching figures for `CC(C)(C)n1cc(C2CCC(c3cc(Nc4ccc5c(c4F)CNS5(=O)=O)n[nH]3)C2)cn1` (stereo not drawn) [Example 99, 5-((5-(3-(1-(tert-butyl)-1H-pyrazol-4-yl)cyclopentyl)-1H-pyrazol-3-yl)amino)-4-fluoro-2,3-dihydrobenzo[d]isothiazole 1-dioxide]: 3290 nM and greater than 10000 nM.
The matching figures for `CN1c2ccc(Nc3cc(C4CCC(c5ncc(C(C)(C)C)o5)C4)[nH]n3)cc2CS1(=O)=O` (stereo not drawn) [Example 140, 5-((5-(3-(5-(tert-butyl)oxazol-2-yl)cyclopentyl)-1H-pyrazol-3-yl)amino)-1-methyl-1,3-dihydrobenzo[c]isothiazole 2,2-dioxide]: 6 nM and 624 nM.
Turning to `CC(C)(C)c1ccc(C2CCC(c3cc(Nc4cc5c(cc4F)S(=O)(=O)NC5)n[nH]3)C2)nc1` (stereo not drawn) [Example 10, 5-((3-(3-(5-(tert-butyl)pyridin-2-yl)cyclopentyl)-1H-pyrazol-5-yl)amino)-6-fluoro-2,3-dihydrobenzo[d]isothiazole 1,1-dioxide], the IC50 at CDK2/Cyclin E1 and against CDK1/Cyclin B1 was greater than 10000 nM throughout.
As for `Cc1ccnc(C2CCC(c3cc(Nc4ccc5c(c4F)CNS5(=O)=O)n[nH]3)C2)n1` (stereo not drawn) [Example 124, 4-fluoro-5-((5-(3-(4-methylpyrimidin-2-yl)cyclopentyl)-1H-pyrazol-3-yl)amino)-2,3-dihydrobenzo[d]isothiazole 1,1-dioxide], the values for the 50% inhibitory concentration (IC50) at CDK2/Cyclin E1 and against CDK1/Cyclin B1 were 107 nM and 8470 nM, respectively.
Turning to `CC(C)(C)c1cnc(C2CCC(c3cc(Nc4ccc5c(c4)CN=S5(C)=O)n[nH]3)C2)o1` (single isomer, unassigned) [Example 169b, 5-((5-(3-(5-(tert-butyl)oxazol-2-yl)cyclopentyl)-1H-pyrazol-3-yl)amino)-1-methyl-3H-1λ^4-benzo[d]isothiazole 1-oxide], the IC50 against CDK2/Cyclin E1 was 21 nM; against CDK1/Cyclin B1, 2350 nM.
Regarding `CC(C)(C)c1cnc(C2CCC(c3cc(Nc4ccc5c(c4)CS(=O)(=O)N5)n[nH]3)C2)s1` (stereo not drawn) [Example 137, 5-((5-(3-(5-(tert-butyl)thiazol-2-yl)cyclopentyl)-1H-pyrazol-3-yl)amino)-1,3-dihydrobenzo[c]isothiazole 2,2-dioxide], the IC50 is 2030 nM on CDK2/Cyclin E1 and greater than 10000 nM against CDK1/Cyclin B1.
With `CC(C)(C)c1cnc(C2CCC(c3cc(Nc4cc5c(cc4F)S(=O)(=O)NC5)n[nH]3)C2)o1` (single isomer, unassigned) [Example 17a, 5-((5-(3-(5-(tert-butyl)oxazol-2-yl)cyclopentyl)-1H-pyrazol-3-yl)amino)-6-fluoro-2,3-dihydrobenzo[d]isothiazole 1,1-dioxide], the IC50 against CDK2/Cyclin E1 was 3.9 nM; against CDK1/Cyclin B1, 2090 nM.
In the case of `CC1(c2cnc(C3CCC(c4cc(Nc5ccc6c(c5F)CNS6(=O)=O)n[nH]4)C3)o2)CC1` (stereo not drawn) [Example 112, 4-fluoro-5-((5-(3-(5-(1-methylcyclopropyl)oxazol-2-yl)cyclopentyl)-1H-pyrazol-3-yl)amino)-2,3-dihydrobenzo[d]isothiazole 1,1-dioxide], the figures for the IC50 against CDK2/Cyclin E1 and at CDK1/Cyclin B1 were 16 nM and 6850 nM, respectively.
Turning to `Cc1cc(C(C)(C)C)cc(C2CCC(c3cc(Nc4ccc5c(c4F)CS(=O)(=O)N5)n[nH]3)C2)n1` (stereo not drawn) [Example 164, 5-((5-(3-(4-(tert-butyl)-6-methylpyridin-2-yl)cyclopentyl)-1H-pyrazol-3-yl)amino)-4-fluoro-1,3-dihydrobenzo[c]isothiazole 2,2-dioxide], the half-inhibitory concentration (IC50) on CDK2/Cyclin E1 was 285 nM; on CDK1/Cyclin B1, greater than 10000 nM.
For the compound `Cc1nc(C2CCC(c3cc(Nc4cc5c(cc4F)S(=O)(=O)NC5)n[nH]3)C2)oc1C(C)(C)C` (stereo not drawn) [Example 19, 5-((5-(3-(5-(tert-butyl)-4-methyloxazol-2-yl)cyclopentyl)-1H-pyrazol-3-yl)amino)-6-fluoro-2,3-dihydrobenzo[d]isothiazole 1,1-dioxide], the IC50 against CDK2/Cyclin E1 is 43 nM; at CDK1/Cyclin B1, greater than 10000 nM.
On to `CC(C)(C)c1ccc(C2CCC(c3cc(Nc4ccc5c(c4F)CS(=O)(=O)C5)n[nH]3)C2)o1` (stereo not drawn) [Example 176, 5-((5-(3-(5-(tert-butyl)furan-2-yl)cyclopentyl)-1H-pyrazol-3-yl)amino)-4-fluoro-1,3-dihydrobenzo[c]thiophene 2,2-dioxide], for which the figures for the IC50 against CDK2/Cyclin E1 and on CDK1/Cyclin B1 were 438 nM and greater than 10000 nM, respectively.
Consider `CC(C)c1ccnc(C2CCC(c3cc(Nc4ccc5c(c4F)CNS5(=O)=O)n[nH]3)C2)n1` (stereo not drawn) [Example 126, 4-fluoro-5-((5-(3-(4-isopropylpyrimidin-2-yl)cyclopentyl)-1H-pyrazol-3-yl)amino)-2,3-dihydrobenzo[d]isothiazole 1,1-dioxide], for which the IC50 amounted to 3.9 nM against CDK2/Cyclin E1 and 669 nM against CDK1/Cyclin B1.
The matching figures for `CC(C)(C)c1cnn([C@@H]2CC[C@H](c3cc(Nc4ccc5c(c4F)CNS5(=O)=O)n[nH]3)C2)c1` (relative stereo) [Example 89, cis-5-((5-(3-(4-(tert-butyl)-1H-pyrazol-1-yl)cyclopentyl)-1H-pyrazol-3-yl)amino)-4-fluoro-2,3-dihydrobenzo[d]isothiazole 1,1-dioxide]: 351 nM and greater than 10000 nM.
The matching figures for `CC(C)(C)c1cnc(C2CCC(c3cc(Nc4ccc5c(c4F)CNS5(=O)=O)n[nH]3)C2)s1` (stereo not drawn) [Example 95, 5-((5-(3-(5-(tert-butyl)thiazol-2-yl)cyclopentyl)-1H-pyrazol-3-yl)amino)-4-fluoro-2,3-dihydrobenzo[d]isothiazole 1,1-dioxide]: 7200 nM and greater than 10000 nM.
On the same counts, the results for `CC(C)(C)c1cnnc(C2CCC(c3cc(Nc4cc5c(cc4F)S(=O)(=O)NC5)n[nH]3)C2)c1` (stereo not drawn) [Example 14, 5-((5-(3-(5-(tert-butyl)pyridazin-3-yl)cyclopentyl)-1H-pyrazol-3-yl)amino)-6-fluoro-2,3-dihydrobenzo[d]isothiazole 1,1-dioxide] are 369 nM and greater than 10000 nM.
